Measured values reported in PMC6384738, “Structure-Function Studies of Polymyxin B Lipononapeptides” (Molecules, 2019).
Values after ≈ are worked out from the molar mass of the structure shown. *1 amine or outer side, *2 acyl side, *3 side chain or, on linkers, in order; H or OH if unused. Where a SMILES comes first, the peptide text is derived from it. Bridges are numbered along the chain shown (N, C = ends). [ ]: non-standard residue; d: D form. The star is where a group is joined. Butanoyl(4-OPh) = O=C(CCCOc1ccccc1)*; NH(2-ClPh) = Clc1ccccc1N*; dDab = NCC[C@@H](N)C(=O)O; Octanoyl = CCCCCCCC(=O)*; Dab = NCC[C@H](N)C(=O)O; CO = O=C([*:1])[*:2]

Columns and labels:
K. pneumoniae BAA 2146 = experiment: microbe, parasite or virus in culture
Method: (§1) All compounds synthesised in this study were assessed for their minimum inhibitory concentrations (MIC, mg/L) by broth microdilution assay against five antibiotic-sensitive and resistant ATCC reference strains covering the Gram-negative ESKAPE pathogens (Escherichia coli, Klebsiella pneumoniae, A. baumannii, and P. aeruginosa) (Table 1, Table 2 and Table 3). Staphylococcus aureus was also included as a representative Gram-positive bacterial strain. […] Polymyxin B 1, colistin 2, vancomycin and gentamicin were used as positive inhibitor comparator compounds. Compounds were counter-screened against human proximal tubular epithelial cells (HK-2), using LDH release as a general indicator of cellular toxicity.

[1] = tested on: K. pneumoniae ATCC 700603; experiment: microbe, parasite or virus in culture
Method: as §1

[2] = tested on: P. aeruginosa FADDI PA070; experiment: microbe, parasite or virus in culture
Method: as §1

K. pneumoniae ATCC 13833 = experiment: microbe, parasite or virus in culture
Method: as §1

P. aeruginosa ATTC 27853 = experiment: microbe, parasite or virus in culture
Method: as §1

in vitro = details: human
Method: as §1
Cytotoxicity to human kidney proximal tubular epithelial cell line, HK-2 (ATCC CRL-2190, sourced from ATCC; Manassas, VA, USA) was determined using the LDH assay as previously described. In brief, HK-2 cells were seeded as 2000 cells/well in black-walled clear bottom 384-well tissue culture treated plates (Corning, catalogue No. 3712) in DMEM/F12 medium (Gibco® 10565-042) containing 10% of Fetal Bovine Serum (FBS, Gibco® 10099-141) and incubated for 24 h at 37 °C, 5% CO2. Compounds were then added into each well with a concentration series from 300 µM to 2.3 µM in 2-fold dilutions. Colistin and polymyxin B were used as controls and tested at a final concentration range of 1 mM to 7.8 µM. The cells were incubated with the compounds for 24 h at 37 °C, 5% CO2. After the incubation, 5 µL of culture medium was added to 45 µL of LDH assay buffer (Biovision, K313-500) and incubated for 30 min at room temperature. The absorbance (ABS) was then read at 450 nm using a Polar Star Omega plate reader. The data was analysed by Prism 6 software (GraphPad Software, La Jolla, CA, USA). Results were calculated using the following equation: cytotoxicity %= (ABSsamples − ABSuntreated/ABS1%Triton X-100 − ABSuntreated) × 100.

S. aureus ATCC 25923 = experiment: microbe, parasite or virus in culture
Method: as §1

E. coli ATCC 25922 = experiment: microbe, parasite or virus in culture
Method: as §1

A. baumannii ATCC 19606 = experiment: microbe, parasite or virus in culture
Method: as §1

| MIC K. pneumoniae BAA 2146 (K. pneumoniae BAA 2146; BAA 2146, 18 h) | MIC K. pneumoniae ATCC 700603 ([1]; ATCC 700603, 18 h) | MIC P. aeruginosa FADDI PA070 ([2]; FADDI PA070, 18 h) | MIC K. pneumoniae ATCC 13833 (K. pneumoniae ATCC 13833; ATCC 13833, 18 h) | MIC P. aeruginosa ATTC 27853 (P. aeruginosa ATTC 27853; ATTC 27853, 18 h) | MIC S. aureus ATCC 25923 (S. aureus ATCC 25923; ATCC 25923, 18 h) | MIC E. coli ATCC 25922 (E. coli ATCC 25922; ATCC 25922, 18 h) | MIC A. baumannii ATCC 19606 (A. baumannii ATCC 19606; ATCC 19606, 18 h) | Compound | CC50 at 24 h (in vitro) | MIC S. aureus ATCC 25923 (S. aureus ATCC 25923; Gram-positive strain, broth microdilution, 18 h) | MIC E. coli ATCC 25922 (E. coli ATCC 25922; broth microdilution, 18 h, 37 °C) | MIC K. pneumoniae BAA 2146 (K. pneumoniae BAA 2146; NDM-1 positive strain, broth microdilution, 18 h) | MIC K. pneumoniae ATCC 700603 ([1]; ESBL strain, broth microdilution, 18 h) | MIC P. aeruginosa FADDI PA070 ([2]; Pmx-resistant clinical isolate, broth microdilution, 18 h) | MIC K. pneumoniae ATCC 13833 (K. pneumoniae ATCC 13833; broth microdilution, 18 h) | MIC A. baumannii ATCC 19606 (A. baumannii ATCC 19606; broth microdilution, 18 h) | MIC P. aeruginosa ATTC 27853 (P. aeruginosa ATTC 27853; broth microdilution, 18 h) |
| --- | --- | --- | --- | --- | --- | --- | --- | --- | --- | --- | --- | --- | --- | --- | --- | --- | --- |
| 1 µg/mL (≈ 0.918 µM) | 1 µg/mL (≈ 0.918 µM) | 8 µg/mL (≈ 7.34 µM) | 4 µg/mL (≈ 3.67 µM) | 2 µg/mL (≈ 1.84 µM) | >32 µg/mL | 0.5 µg/mL (≈ 0.459 µM) | 8 µg/mL (≈ 7.34 µM) | CCCCCCCC(=O)N[C@H](C(=O)N[C@H](CCN)C(=O)N[C@H]1CCNC(=O)[C@H]([C@@H](C)O)NC(=O)[C@H](CCN)NC(=O)[C@H](CCN)NC(=O)[C@H](CC(C)C)NC(=O)[C@@H](Cc2ccccc2)NC(=O)[C@H](CCN)NC1=O)[C@@H](C)O [Compound 21] (Octanoyl-T[dDab][Dab][Dab][dF]L[Dab][Dab]T; lactam 3-C) | 289 µM |  |  |  |  |  |  |  |  |
|  |  |  |  |  |  |  |  | CC(C)C[C@@H]1NC(=O)[C@@H](Cc2ccccc2)NC(=O)[C@H](CCN)NC(=O)[C@@H](NC(=O)[C@@H](CCN)NC(=O)[C@@H](NC(=O)Nc2ccccc2Cl)[C@@H](C)O)CCNC(=O)[C@H]([C@@H](C)O)NC(=O)[C@H](CCN)NC(=O)[C@H](CCN)NC1=O [Compound 22] ({NH(2-ClPh)-CO}-T[dDab][Dab][Dab][dF]L[Dab][Dab]T; lactam 3-C) | > 300 µM | >32 µg/mL | 16 µg/mL (≈ 14.3 µM) | 16 µg/mL (≈ 14.3 µM) | 16 µg/mL (≈ 14.3 µM) | >32 µg/mL | 16 µg/mL (≈ 14.3 µM) | >32 µg/mL | 2 µg/mL (≈ 1.79 µM) |
| 1 µg/mL (≈ 0.889 µM) | 1 µg/mL (≈ 0.889 µM) | >32 µg/mL | 4 µg/mL (≈ 3.55 µM) | 2 µg/mL (≈ 1.78 µM) | >32 µg/mL | 1 µg/mL (≈ 0.889 µM) | 16 µg/mL (≈ 14.2 µM) | CC(C)C[C@@H]1NC(=O)[C@@H](Cc2ccccc2)NC(=O)[C@H](CCN)NC(=O)[C@@H](NC(=O)[C@@H](CCN)NC(=O)[C@@H](NC(=O)CCCOc2ccccc2)[C@@H](C)O)CCNC(=O)[C@H]([C@@H](C)O)NC(=O)[C@H](CCN)NC(=O)[C@H](CCN)NC1=O [Compound 26] ({Butanoyl(4-OPh)}-T[dDab][Dab][Dab][dF]L[Dab][Dab]T; lactam 3-C) | > 300 µM |  |  |  |  |  |  |  |  |
| 16 µg/mL (≈ 14.2 µM) | 32 µg/mL (≈ 28.4 µM) |  | >32 µg/mL | 16 µg/mL (≈ 14.2 µM) | >32 µg/mL | 4 µg/mL (≈ 3.55 µM) | >32 µg/mL | CCCCCCCC(=O)N[C@H](C(=O)N[C@@H](Cc1c[nH]cn1)C(=O)N[C@H]1CCNC(=O)[C@H]([C@@H](C)O)NC(=O)[C@H](CCN)NC(=O)[C@H](CCN)NC(=O)[C@H](CC(C)C)NC(=O)[C@@H](Cc2ccccc2)NC(=O)[C@H](CCN)NC1=O)[C@@H](C)O [Compound 47] (Octanoyl-TH[Dab][Dab][dF]L[Dab][Dab]T; lactam 3-C) | > 300 µM |  |  |  |  |  |  |  |  |

| Compound | MIC K. pneumoniae BAA 2146 (K. pneumoniae BAA 2146; BAA 2146, 18 h) | MIC K. pneumoniae ATCC 700603 ([1]; ATCC 700603, 18 h) | MIC P. aeruginosa FADDI PA070 ([2]; FADDI PA070, 18 h) | MIC K. pneumoniae ATCC 13833 (K. pneumoniae ATCC 13833; ATCC 13833, 18 h) | MIC P. aeruginosa ATTC 27853 (P. aeruginosa ATTC 27853; ATTC 27853, 18 h) | MIC S. aureus ATCC 25923 (S. aureus ATCC 25923; ATCC 25923, 18 h) | MIC E. coli ATCC 25922 (E. coli ATCC 25922; ATCC 25922, 18 h) | MIC A. baumannii ATCC 19606 (A. baumannii ATCC 19606; ATCC 19606, 18 h) | CC50 at 24 h (in vitro) | MIC S. aureus ATCC 25923 (S. aureus ATCC 25923; Gram-positive strain, broth microdilution, 18 h) | MIC E. coli ATCC 25922 (E. coli ATCC 25922; broth microdilution, 18 h, 37 °C) | MIC K. pneumoniae BAA 2146 (K. pneumoniae BAA 2146; NDM-1 positive strain, broth microdilution, 18 h) | MIC K. pneumoniae ATCC 700603 ([1]; ESBL strain, broth microdilution, 18 h) | MIC P. aeruginosa FADDI PA070 ([2]; Pmx-resistant clinical isolate, broth microdilution, 18 h) | MIC K. pneumoniae ATCC 13833 (K. pneumoniae ATCC 13833; broth microdilution, 18 h) | MIC A. baumannii ATCC 19606 (A. baumannii ATCC 19606; broth microdilution, 18 h) | MIC P. aeruginosa ATTC 27853 (P. aeruginosa ATTC 27853; broth microdilution, 18 h) |
| --- | --- | --- | --- | --- | --- | --- | --- | --- | --- | --- | --- | --- | --- | --- | --- | --- | --- |
| CCCCCCCC(=O)N[C@@H](CCN)C(=O)N[C@H](C(=O)N[C@H](CCN)C(=O)N[C@H]1CCNC(=O)[C@H]([C@@H](C)O)NC(=O)[C@H](CCN)NC(=O)[C@H](CCN)NC(=O)[C@H](CC(C)C)NC(=O)[C@@H](Cc2ccccc2)NC(=O)[C@H](CCN)NC1=O)[C@@H](C)O [Compound 20] (Octanoyl-[Dab]T[dDab][Dab][Dab][dF]L[Dab][Dab]T; lactam 4-C) | 4 µg/mL (≈ 3.36 µM) | 1 µg/mL (≈ 0.841 µM) | >32 µg/mL | 0.5 µg/mL (≈ 0.42 µM) | 2 µg/mL (≈ 1.68 µM) |  |  |  | 183 µM |  |  |  |  |  |  |  |  |
